The nature of data set [1]: refractive index (Na D-line) (dimensionless). As to conditions: 298.15 K; 101.33 kPa; Liquid; Standard Abbe refractometry.
The conditions of data set [2]: 298.15 K; 101.33 kPa; Liquid; Vibrating tube method.

± gives the expanded uncertainty stated by the source.

In general, refractive index refers to a measure of how strongly the sample bends light. Broadly, the mass density is the mass of a sample divided by its volume. For `CCCCCCCCCCCCCC` [tetradecane], the refractive index in data set [1] amounted to 1.4269 ± 0.0008. In addition, the mass density in data set [2] is 759.38 ± 0.26 kg/m3.
The matching figures for `CC1CCC(=O)O1` (centres undefined) [γ-valerolactone]: 1.4312 ± 0.0008 and 1049.25 ± 0.3 kg/m3.

Values taken from the NIST ThermoML archive (doi:10.1016/j.fluid.2018.11.012).
